The source made the active and inactive calls. The calls are words filed in the database; no cut-off is given here.
Assays:
[1] = system: HEK293; assay: Inhibition of Wnt/beta-catenin signaling in HEK293 cells stably transfected with TOP reporter gene assessed as TCF/beta-catenin transcriptional activity after 24 hrs by TOP activity/luciferase reporter gene assay; assay type: cell-based; settings: Homo sapiens; for IC50: HEK293, 24 h
[2] = system: HEK293; assay: Inhibition of Wnt/beta-catenin signaling in HEK293 cells stably transfected with FOP reporter gene assessed as TCF/beta-catenin transcriptional activity after 24 hrs by FOP activity/luciferase reporter gene assay; assay type: cell-based; settings: Homo sapiens
[3] = system: HEK293; assay: Cytotoxicity against human HEK293 cells after 24 hrs by fluorometric microculture cytotoxicity assay; assay type: cell-based; settings: HEK293, 24 h
[4] = system: RKO; assay: Cytotoxicity against human Wnt-independent RKO cells after 24 hrs by fluorometric microculture cytotoxicity assay; assay type: functional, cell-based
[5] = system: SW480; assay: Cytotoxicity against human Wnt-dependent SW480 cells after 24 hrs by fluorometric microculture cytotoxicity assay; assay type: functional, cell-based; settings: SW480, 24 h
[6] = Cytotoxicity against human Wnt-dependent DLD1 cells after 24 hrs by fluorometric microculture cytotoxicity assay; assay type: functional, cell-based; settings: DLD-1, 24 h
[7] = system: HCT-116; assay: Cytotoxicity against human Wnt-dependent HCT116 cells after 24 hrs by fluorometric microculture cytotoxicity assay; assay type: functional, cell-based; settings: HCT-116, 24 h
[8] = system: HEK293; assay: Reduction in beta-catenin level in human HEK293 cell nucleus stably transfected with TOP reporter gene at 1 to 20 uM after 24 hrs by Western blot analysis; assay type: functional, cell-based
[9] = system: HEK293; assay: Reduction in beta-catenin level in human HEK293 cell cytosol stably transfected with TOP reporter gene at 1 to 20 uM after 24 hrs by Western blot analysis; assay type: functional, cell-based
[10] = system: HEK293; assay: Reduction in c-myc level in human HEK293 cell nucleus stably transfected with TOP reporter gene at 1 to 20 uM after 24 hrs by Western blot analysis; assay type: functional, cell-based
[11] = system: HEK293; assay: Reduction in beta-catenin level in human HEK293 cell nucleus stably transfected with TOP reporter gene at 20 uM after 24 hrs by Western blot analysis in presence of 1 uM MG132; assay type: functional, cell-based

Compound	inhibition [1]	IC50 [1] [µM]	Activity [2]	IC50 [3] [µM]	IC50 [4] [µM]	IC50 [5] [µM]	IC50 [6] [µM]	IC50 [7] [µM]	inhibition [8]	inhibition [9]	inhibition [10]	inhibition [11]
COc1cc(/C=C/C(=O)OCCCc2ccc(O[C@@H](COC(=O)/C=C/c3ccc(O)c(OC)c3)[C@@H](O)c3ccc(O)c(OC)c3)c(OC)c2)ccc1O (relative stereo)	Dose-dependent effect	6.3	inactive	26.4	36.1	> 40	> 40	> 40	–	–	–	–
CC1(C)CC[C@]2(C(=O)O)CC[C@]3(COC(=O)/C=C/c4ccc(O)c(O)c4)C(=CC[C@@H]4[C@@]5(C)CC[C@H](OC(=O)/C=C/c6ccc(O)c(O)c6)C(C)(C)[C@@H]5CC[C@]43C)[C@@H]2C1	–	14.8	–	29.3	> 40	> 40	> 40	> 40	–	–	–	–
COc1cc(/C=C/C(=O)OCCCc2ccc(O[C@@H](COC(=O)/C=C/c3ccc(O)c(OC)c3)[C@@H](O)c3ccc(O)c(OC)c3)c(O)c2)ccc1O	Dose-dependent effect	4.5	inactive	24.2	23	> 40	> 40	> 39	–	–	–	–
COc1cc(/C=C/C(=O)OCCCc2cc(OC)c3c(c2)[C@@H](COC(=O)/C=C/c2ccc(O)c(OC)c2)[C@H](c2cc(OC)c(O)c(OC)c2)O3)ccc1O	Dose-dependent effect	1.9	inactive	36.1	> 40	> 40	> 40	> 40	–	–	–	–
COc1cc(/C=C/C(=O)OCCCc2cc(OC)c3c(c2)[C@@H](COC(=O)/C=C/c2ccc(O)c(OC)c2)[C@H](c2ccc(O)c(OC)c2)O3)ccc1O	Dose-dependent effect	1	inactive	30.3	25.4	> 40	> 40	> 22.8	Active	Active	Active	inactive

Reference: ChEMBL document CHEMBL3588811, “Boehmenan, a lignan from Hibiscus ficulneus, showed Wnt signal inhibitory activity” (Bioorg Med Chem Lett, 2015)
